According to DBAASP:
Values after ≈ are worked out from the molar mass of the structure shown.

Columns and labels:
Assay in all cases: ≥ marks a high value that may be exact or a test limit, other limits are often not marked, values filed in µg/mL are converted to µM
[1] = system: Escherichia coli ATCC 25922
[2] = system: Staphylococcus aureus ATCC 25923
Escherichia coli = system: Escherichia coli
Staphylococcus aureus = system: Staphylococcus aureus
[3] = system: Pseudomonas aeruginosa ATCC 27853

MIC [1] [µM]	MIC [2] [µM]	MIC (Escherichia coli) [µM]	MIC (Staphylococcus aureus) [µM]	MIC [3] [µM]	SMILES
23.6 (≈ 50 µg/mL)	11.8 (≈ 25 µg/mL)	–	–	–	CC(C)C[C@H](NC(=O)[C@H](C)NC(=O)[C@@H](N)CO)C(=O)N[C@H](C(=O)NCC(=O)N[C@H]1CSSC[C@@H](C(=O)N[C@@H](Cc2ccccc2)C(=O)NCC(=O)N[C@@H](CCCN=C(N)N)C(=O)O)NC(=O)[C@@H]2CCCN2C(=O)[C@H](CCCCN)NC(=O)[C@@H]2CCCN2C(=O)[C@@H]2CCCN2C(=O)[C@H](Cc2c[nH]c3ccccc23)NC(=O)[C@H](CO)NC(=O)[C@H](CCCCN)NC(=O)[C@H]([C@@H](C)O)NC(=O)[C@H](Cc2c[nH]c3ccccc23)NC1=O)C(C)C [SALVGCWTKSWPPKPCFGR]
30 (≈ 98.6 µg/mL)	30 (≈ 98.6 µg/mL)	–	–	–	CC(C)C[C@H](NC(=O)CN)C(=O)N[C@@H](Cc1ccccc1)C(=O)N[C@@H](CC(=O)O)C(=O)N[C@H](C(=O)N[C@H](C(=O)N[C@@H](CCCCN)C(=O)NCC(=O)N[C@H](C(=O)N[C@@H](CC(C)C)C(=O)N[C@@H](CCCCN)C(=O)NCC(=O)N[C@@H](C)C(=O)NCC(=O)N[C@@H](CCCCN)C(=O)N[C@@H](CC(N)=O)C(=O)N[C@H](C(=O)N[C@@H](C)C(=O)NCC(=O)N[C@@H](CO)C(=O)N[C@@H](CC(C)C)C(=O)N[C@@H](CC(C)C)C(=O)N[C@@H](CCC(=O)O)C(=O)N[C@@H](CCC(N)=O)C(=O)N[C@@H](CC(C)C)C(=O)N[C@@H](CCCCN)C(=O)N[C@H]1CSSC[C@@H](C(=O)O)NC(=O)CNC(=O)CNC(=O)[C@H](CO)NC(=O)[C@H](CC(C)C)NC(=O)[C@H](CCCCN)NC1=O)C(C)C)C(C)C)C(C)C)C(C)C [GLFDVVKGVLKGAGKNVAGSLLEQLKCKLSGGC]
–	–	10.3 (≈ 20 µg/mL)	2.58 (≈ 5 µg/mL)	–	CC(C)C[C@H](NC(=O)[C@H](Cc1ccc(O)cc1)NC(=O)[C@@H]1CCCN1C(=O)[C@H](Cc1c[nH]c2ccccc12)NC(=O)[C@H](Cc1c[nH]c2ccccc12)NC(=O)[C@H](Cc1c[nH]c2ccccc12)NC(=O)[C@@H]1CCCN1C(=O)[C@H](Cc1ccc(O)cc1)NC(=O)[C@H](CCCN=C(N)N)NC(=O)[C@H](CCCN=C(N)N)NC(=O)[C@@H](N)C(C)C)C(=O)N[C@@H](CCCN=C(N)N)C(=O)N[C@@H](CCCN=C(N)N)C(N)=O [VRRYPWWWPYLRR]
80 (≈ 251 µg/mL)	> 160	–	–	–	CC[C@H](C)[C@H](NC(=O)[C@@H](NC(=O)[C@H](CC(N)=O)NC(=O)[C@H](CC(C)C)NC(=O)[C@H](CC(C)C)NC(=O)CN)C(C)C)C(=O)N[C@@H](CCCCN)C(=O)N[C@@H](CC(=O)O)C(=O)N[C@H](C(=O)N[C@@H](C)C(=O)N[C@@H](CCC(N)=O)C(=O)N[C@@H](CC(N)=O)C(=O)N[C@@H](CC(C)C)C(=O)N[C@@H](Cc1ccccc1)C(=O)N[C@@H](C)C(=O)N[C@@H](C)C(=O)N[C@@H](C)C(=O)N[C@@H](CC(C)C)C(=O)N[C@@H](CC(=O)O)C(=O)N[C@@H](CCCCN)C(=O)N[C@@H](CC(C)C)C(=O)N[C@@H](CCCCN)C(=O)N[C@H]1CSSC[C@@H](C(=O)N[C@@H](CC(N)=O)C(=O)O)NC(=O)[C@H](CCCCN)NC(=O)[C@H]([C@@H](C)O)NC(=O)[C@H](C(C)C)NC(=O)[C@H](CCCCN)NC1=O)[C@@H](C)O [GLLNVIKDTAQNLFAAALDKLKCKVTKCN]
4 (≈ 9.1 µg/mL)	4 (≈ 9.1 µg/mL)	–	–	4 (≈ 9.1 µg/mL)	CC(C)C[C@H](NC(=O)[C@H](CCCCN)NC(=O)[C@H](CCCCN)NC(=O)[C@H](C)NC(=O)[C@H](CC(C)C)NC(=O)[C@H](CCCCN)NC(=O)[C@H](C)NC(=O)[C@H](CC(C)C)NC(=O)[C@H](CCCCN)NC(=O)[C@H](CCCCN)NC(=O)[C@H](C)NC(=O)[C@H](CC(C)C)NC(=O)[C@H](CCCCN)NC(=O)[C@H](C)NC(=O)[C@H](CC(C)C)NC(=O)[C@H](CCCCN)NC(=O)[C@H](CCCCN)NC(=O)[C@H](C)NC(=O)[C@H](CC(C)C)NC(=O)[C@@H](N)CCCCN)C(=O)N[C@@H](C)C(N)=O [KLAKKLAKLAKKLAKLAKKLA]
–	–	–	–	32 (≈ 102 µg/mL)	CC[C@H](C)[C@H](NC(=O)CNC(=O)[C@H](CCC(N)=O)NC(=O)CNC(=O)[C@H](Cc1c[nH]c2ccccc12)NC(=O)[C@H](CCCCN)NC(=O)[C@H](CCC(=O)O)NC(=O)[C@@H](NC(=O)[C@H](CCCCN)NC(=O)[C@H](CCCCN)NC(=O)[C@H](Cc1c[nH]c2ccccc12)NC(=O)[C@H](CC(C)C)NC(=O)[C@H](CCCCN)NC(=O)[C@H](Cc1c[nH]c2ccccc12)NC(=O)[C@@H](N)CCCCN)[C@@H](C)CC)C(=O)NCC(=O)N[C@@H](C)C(=O)N[C@H](C(=O)N[C@@H](CC(C)C)C(=O)N[C@@H](CCCCN)C(=O)N[C@@H](Cc1c[nH]c2ccccc12)C(=O)N[C@@H](CC(C)C)C(=O)N[C@H](C(=O)N[C@H](C(=O)N[C@@H](Cc1c[nH]c2ccccc12)C(=O)N[C@@H](CC(C)C)C(=O)O)[C@@H](C)O)[C@@H](C)O)C(C)C [KWKLWKKIEKWGQGIGAVLKWLTTWL]
–	–	50 (≈ 76.9 µg/mL)	12.5 (≈ 19.2 µg/mL)	–	CC[C@H](C)[C@H](NC(=O)CN)C(=O)NCC(=O)N[C@@H](CO)C(=O)N[C@@H](C)C(=O)N[C@@H](CC(C)C)C(=O)N[C@@H](C)C(=O)N[C@@H](CCCCN)C(=O)N[C@@H](C)C(=O)N[C@@H](C)C(=O)N[C@@H](CCCCN)C(=O)N[C@@H](CC(C)C)C(=O)N[C@H](C(=O)N[C@@H](C)C(=O)NCC(=O)N[C@H](C(=O)N[C@H](C(N)=O)C(C)C)[C@@H](C)CC)C(C)C [GIGSALAKAAKLVAGIV]
25.6 (≈ 28 µg/mL)	12.8 (≈ 14 µg/mL)	–	–	–	CC[C@H](C)[C@H](NC(=O)[C@@H](NC(=O)[C@H](CCCCN)NC(=O)[C@H](CC(C)C)NC(=O)[C@H](CC(C)C)NC(=O)CN)C(C)C)C(=O)N[C@@H](CCCCN)C(=O)N[C@H](C(=O)N[C@@H](CC(C)C)C(=O)N[C@@H](CC(C)C)C(N)=O)C(C)C [GLLKVIKVLL]
64 (≈ 75.5 µg/mL)	100 (≈ 118 µg/mL)	–	–	> 100	CC(C)[C@H](NC(=O)[C@H](Cc1ccc(O)cc1)NC(=O)[C@H](CO)NC(=O)[C@H](CCCCN)NC(=O)[C@@H](N)Cc1c[nH]c2ccccc12)C(=O)N[C@@H](CCCN=C(N)N)C(=O)N[C@@H](CCCN=C(N)N)C(=O)N[C@@H](Cc1c[nH]c2ccccc12)C(N)=O [WKSYVRRW]
> 100	> 100	–	–	> 100	CC(C)[C@H](NC(=O)[C@H](Cc1ccc(O)cc1)NC(=O)[C@H](CO)NC(=O)[C@H](CCCCN)NC(=O)[C@@H](N)CCCCN)C(=O)N[C@@H](CCCN=C(N)N)C(=O)N[C@@H](CCCN=C(N)N)C(=O)N[C@@H](Cc1c[nH]c2ccccc12)C(=O)N[C@@H](CCCN=C(N)N)C(=O)N[C@@H](CO)C(N)=O [KKSYVRRWRS]
16 (≈ 28.6 µg/mL)	–	–	–	–	CC(C)C[C@H](NC(=O)[C@H](Cc1ccccc1)NC(=O)[C@@H]1CCCN1C(=O)[C@H](Cc1c[nH]c2ccccc12)NC(=O)[C@H](C)NC(=O)[C@H](Cc1c[nH]c2ccccc12)NC(=O)[C@@H]1CCCN1C(=O)[C@H](Cc1ccccc1)NC(=O)[C@H](CCCN=C(N)N)NC(=O)[C@H](CCCN=C(N)N)NC(=O)[C@@H](N)C(C)C)C(=O)N[C@@H](CCCN=C(N)N)C(=O)N[C@@H](CCCN=C(N)N)C(N)=O [VRRFPWAWPFLRR]
> 31.5	> 31.5	–	–	–	CC[C@H](C)[C@H](NC(=O)[C@H](CCCN=C(N)N)NC(=O)[C@H](CCCCN)NC(=O)[C@@H](N)CC(C)C)C(=O)N[C@@H](CCCCN)C(=O)N[C@H](C(=O)N[C@@H](CC(C)C)C(=O)N[C@@H](CC(C)C)C(N)=O)[C@@H](C)O [LKRIKTLL]
5.02 (≈ 6 µg/mL)	7.53 (≈ 8.99 µg/mL)	–	–	–	CC[C@H](C)[C@H](NC(=O)[C@@H](NC(=O)[C@H](CCCCN)NC(=O)[C@H](CC(C)C)NC(=O)[C@H](CC(C)C)NC(=O)[C@@H](N)CCCCN)C(C)C)C(=O)N[C@@H](CCCCN)C(=O)N[C@@H](CCCCN)C(=O)N[C@@H](CC(C)C)C(=O)N[C@@H](CC(C)C)C(N)=O [KLLKVIKKLL]
64 (≈ 146 µg/mL)	64 (≈ 146 µg/mL)	–	–	–	CC[C@H](C)[C@H](NC(=O)[C@H](CCC(N)=O)NC(=O)[C@H](CCCCN)NC(=O)[C@@H](NC(=O)[C@H](CC(C)C)NC(=O)[C@H](CCC(N)=O)NC(=O)[C@H](C)NC(=O)[C@H](Cc1ccccc1)NC(=O)[C@@H](NC(=O)[C@H](CC(=O)O)NC(=O)[C@H](CCCCN)NC(=O)CNC(=O)[C@@H](NC(=O)CNC(=O)[C@@H](NC(=O)[C@@H](NC(=O)[C@H](Cc1ccccc1)NC(=O)[C@H](CC(=O)O)NC(=O)[C@H](CC(C)C)NC(=O)[C@H](CC(C)C)NC(=O)CN)C(C)C)[C@@H](C)O)C(C)C)[C@@H](C)CC)[C@@H](C)CC)C(N)=O [GLLDFVTGVGKDIFAQLIKQI]
–	23 (≈ 50 µg/mL)	–	–	–	CC(C)C[C@H](NC(=O)[C@H](C)NC(=O)[C@@H](N)CO)C(=O)N[C@H](C(=O)NCC(=O)N[C@H]1CSSC[C@@H](C(=O)N[C@@H](Cc2ccccc2)C(=O)NCC(=O)N[C@@H](CCCN=C(N)N)C(=O)NCC(=O)O)NC(=O)[C@@H]2CCCN2C(=O)[C@H](CCCCN)NC(=O)[C@@H]2CCCN2C(=O)[C@@H]2CCCN2C(=O)[C@H](Cc2c[nH]c3ccccc23)NC(=O)[C@H](CO)NC(=O)[C@H](CCCCN)NC(=O)[C@H]([C@@H](C)O)NC(=O)[C@H](Cc2c[nH]c3ccccc23)NC1=O)C(C)C [SALVGCWTKSWPPKPCFGRG]
–	–	> 123	–	–	CC[C@H](C)[C@H](NC(=O)[C@@H](N)C(C)C)C(=O)N[C@@H](C)C(=O)N[C@@H](Cc1ccccc1)C(=O)N[C@@H](C)C(=O)N[C@@H](CCCCN)C(=O)N[C@H](C(=O)N[C@@H](CCCCN)C(=O)N[C@@H](CCC(=O)O)C(=O)N[C@@H](C)C(=O)N[C@@H](CCCCN)C(=O)N[C@@H](C)C(=O)N[C@@H](CCCCN)C(=O)N[C@@H](CC(C)C)C(=O)N[C@@H](CCCCN)C(=O)NCC(=O)N[C@@H](CCC(N)=O)C(=O)N[C@@H](C)C(=O)N[C@@H](CCCCN)C(=O)NCC(=O)O)[C@@H](C)O [VIAFAKTKEAKAKLKGQAKG]
> 100	–	–	–	> 100	CC[C@H](C)[C@H](NC(=O)[C@H](Cc1ccc(O)cc1)NC(=O)[C@H](CCC(N)=O)NC(=O)[C@H](CC(C)C)NC(=O)[C@H](C)N)C(=O)N[C@@H](CCCCN)C(=O)N[C@@H](CC(C)C)C(=O)N[C@@H](CC(C)C)C(=O)N[C@@H](CCCCN)C(=O)N[C@@H](CCC(=O)O)C(N)=O [ALQYIKLLKE]
